± gives the standard deviation of the averaged measurements.
Tests used:
Assay in all cases: relative viability vs DMSO control (72 h) (fraction); higher = more viable cells
[1] = system: HT1080
Method in brief: (§1)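 Densities for seeding sarcoma cell lines into 384-well plates were set to give 80–90% confluence. After 24 h, 2.5 µl of serially diluted compound from source plates of 10 mM to 0.0002 mM went in, and plates stayed 72 h at 37 °C in 5% CO2 with 0.1% DMSO vehicle and a 5 µM positive control. Percent growth from ATPLite readings, averaged over up to triplicate wells, served as relative viability, rescaled so 1 means full and 0 means none.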

[2] = system: MES-SA
Method in brief: as §1

[3] = system: SW684
Method in brief: as §1

[4] = system: KHOS-NP
Method in brief: as §1

[5] = system: VA-ES-BJ
Method in brief: as §1

[6] = system: SK-LMS-1
Method in brief: as §1

[7] = system: SW872
Method in brief: as §1

[8] = system: SK-ES-1
Method in brief: as §1

[9] = system: G401
Method in brief: as §1

[10] = system: SW1353
Method in brief: as §1

[11] = system: RD-ES
Method in brief: as §1

[12] = system: RD
Method in brief: as §1

Cn1cnc2c(F)c(Nc3ccc(Br)cc3Cl)c(C(=O)NOCCO)cc21 [Selumetinib]
relative viability ([1]; 0.00017 µM): 0.96 ± 0.018
relative viability ([1]; 0.00051 µM): 0.97 ± 0.067
relative viability ([1]; 0.00152 µM): 0.974 ± 0.023
relative viability ([1]; 0.00457 µM): 0.9799 ± 0.0076
relative viability ([1]; 0.01372 µM): 0.927 ± 0.053
relative viability ([1]; 0.04115 µM): 0.855 ± 0.043
relative viability ([1]; 0.1235 µM): 0.805 ± 0.014
relative viability ([1]; 0.3704 µM): 0.6793 ± 0.0063
relative viability ([1]; 1.111 µM): 0.602 ± 0.017
relative viability ([1]; 3.333 µM): 0.491 ± 0.025
relative viability ([1]; 10 µM): 0.462 ± 0.013
relative viability ([2]; 0.00017 µM): 0.871 ± 0.016
relative viability ([2]; 0.00051 µM): 0.89 ± 0.02
relative viability ([2]; 0.00152 µM): 0.855 ± 0.04
relative viability ([2]; 0.00457 µM): 0.862 ± 0.037
relative viability ([2]; 0.01372 µM): 0.847 ± 0.024
relative viability ([2]; 0.04115 µM): 0.844 ± 0.036
relative viability ([2]; 0.1235 µM): 0.754 ± 0.021
relative viability ([2]; 0.3704 µM): 0.779 ± 0.036
relative viability ([2]; 1.111 µM): 0.76 ± 0.041
relative viability ([2]; 3.333 µM): 0.741 ± 0.047
relative viability ([2]; 10 µM): 0.694 ± 0.046
relative viability ([3]; 0.00017 µM): 1.04 ± 0.037
relative viability ([3]; 0.00051 µM): 1.09 ± 0.043
relative viability ([3]; 0.00152 µM): 1.06 ± 0.047
relative viability ([3]; 0.00457 µM): 1.03 ± 0.043
relative viability ([3]; 0.01372 µM): 1.03 ± 0.04
relative viability ([3]; 0.04115 µM): 0.973 ± 0.067
relative viability ([3]; 0.1235 µM): 0.969 ± 0.07
relative viability ([3]; 0.3704 µM): 0.98 ± 0.047
relative viability ([3]; 1.111 µM): 0.941 ± 0.029
relative viability ([3]; 3.333 µM): 0.84 ± 0.024
relative viability ([3]; 10 µM): 0.692 ± 0.048
relative viability ([4]; 0.00017 µM): 1.06 ± 0.019
relative viability ([4]; 0.00051 µM): 1.03 ± 0.047
relative viability ([4]; 0.00152 µM): 1.04 ± 0.038
relative viability ([4]; 0.00457 µM): 1.04 ± 0.034
relative viability ([4]; 0.01372 µM): 1.01 ± 0.058
relative viability ([4]; 0.04115 µM): 0.965 ± 0.03
relative viability ([4]; 0.1235 µM): 0.823 ± 0.052
relative viability ([4]; 0.3704 µM): 0.727 ± 0.042
relative viability ([4]; 1.111 µM): 0.526 ± 0.021
relative viability ([4]; 3.333 µM): 0.351 ± 0.018
relative viability ([4]; 10 µM): 0.277 ± 0.0072
relative viability ([5]; 0.00017 µM): 0.9961 ± 0.0092
relative viability ([5]; 0.00051 µM): 0.992 ± 0.022
relative viability ([5]; 0.00152 µM): 0.985 ± 0.0088
relative viability ([5]; 0.00457 µM): 0.964 ± 0.039
relative viability ([5]; 0.01372 µM): 0.947 ± 0.041
relative viability ([5]; 0.04115 µM): 0.877 ± 0.03
relative viability ([5]; 0.1235 µM): 0.8465 ± 0.0025
relative viability ([5]; 0.3704 µM): 0.836 ± 0.051
relative viability ([5]; 1.111 µM): 0.808 ± 0.039
relative viability ([5]; 3.333 µM): 0.78 ± 0.036
relative viability ([5]; 10 µM): 0.742 ± 0.023
relative viability ([6]; 0.00017 µM): 0.942 ± 0.062
relative viability ([6]; 0.00051 µM): 0.955 ± 0.056
relative viability ([6]; 0.00152 µM): 0.953 ± 0.054
relative viability ([6]; 0.00457 µM): 0.945 ± 0.037
relative viability ([6]; 0.01372 µM): 0.875 ± 0.028
relative viability ([6]; 0.04115 µM): 0.708 ± 0.032
relative viability ([6]; 0.1235 µM): 0.6 ± 0.013
relative viability ([6]; 0.3704 µM): 0.601 ± 0.045
relative viability ([6]; 1.111 µM): 0.5484 ± 0.0052
relative viability ([6]; 3.333 µM): 0.491 ± 0.016
relative viability ([6]; 10 µM): 0.37 ± 0.0084
relative viability ([7]; 0.00017 µM): 0.957 ± 0.066
relative viability ([7]; 0.00051 µM): 0.985 ± 0.053
relative viability ([7]; 0.00152 µM): 0.951 ± 0.048
relative viability ([7]; 0.00457 µM): 0.938 ± 0.051
relative viability ([7]; 0.01372 µM): 0.894 ± 0.02
relative viability ([7]; 0.04115 µM): 0.758 ± 0.01
relative viability ([7]; 0.1235 µM): 0.654 ± 0.03
relative viability ([7]; 0.3704 µM): 0.58 ± 0.046
relative viability ([7]; 1.111 µM): 0.58 ± 0.01
relative viability ([7]; 3.333 µM): 0.562 ± 0.028
relative viability ([7]; 10 µM): 0.545 ± 0.019
relative viability ([8]; 0.00017 µM): 0.944 ± 0.098
relative viability ([8]; 0.00051 µM): 0.961 ± 0.07
relative viability ([8]; 0.00152 µM): 0.951 ± 0.064
relative viability ([8]; 0.00457 µM): 0.956 ± 0.042
relative viability ([8]; 0.01372 µM): 0.951 ± 0.074
relative viability ([8]; 0.04115 µM): 0.929 ± 0.044
relative viability ([8]; 0.1235 µM): 0.932 ± 0.05
relative viability ([8]; 0.3704 µM): 0.925 ± 0.052
relative viability ([8]; 1.111 µM): 0.925 ± 0.064
relative viability ([8]; 3.333 µM): 0.925 ± 0.078
relative viability ([8]; 10 µM): 0.87 ± 0.041
relative viability ([9]; 0.00017 µM): 0.994 ± 0.049
relative viability ([9]; 0.00051 µM): 0.962 ± 0.051
relative viability ([9]; 0.00152 µM): 0.959 ± 0.033
relative viability ([9]; 0.00457 µM): 0.935 ± 0.087
relative viability ([9]; 0.01372 µM): 0.949 ± 0.029
relative viability ([9]; 0.04115 µM): 0.926 ± 0.029
relative viability ([9]; 0.1235 µM): 0.882 ± 0.018
relative viability ([9]; 0.3704 µM): 0.838 ± 0.032
relative viability ([9]; 1.111 µM): 0.78 ± 0.037
relative viability ([9]; 3.333 µM): 0.719 ± 0.045
relative viability ([9]; 10 µM): 0.627 ± 0.054
relative viability ([10]; 0.00017 µM): 0.917 ± 0.016
relative viability ([10]; 0.00051 µM): 0.894 ± 0.019
relative viability ([10]; 0.00152 µM): 0.918 ± 0.024
relative viability ([10]; 0.00457 µM): 0.892 ± 0.02
relative viability ([10]; 0.01372 µM): 0.815 ± 0.058
relative viability ([10]; 0.04115 µM): 0.782 ± 0.012
relative viability ([10]; 0.1235 µM): 0.75 ± 0.019
relative viability ([10]; 0.3704 µM): 0.709 ± 0.036
relative viability ([10]; 1.111 µM): 0.724 ± 0.043
relative viability ([10]; 3.333 µM): 0.674 ± 0.029
relative viability ([10]; 10 µM): 0.652 ± 0.008
relative viability ([11]; 0.00017 µM): 0.958 ± 0.043
relative viability ([11]; 0.00051 µM): 0.942 ± 0.032
relative viability ([11]; 0.00152 µM): 0.95 ± 0.012
relative viability ([11]; 0.00457 µM): 0.985 ± 0.029
relative viability ([11]; 0.01372 µM): 0.973 ± 0.03
relative viability ([11]; 0.04115 µM): 0.965 ± 0.029
relative viability ([11]; 0.1235 µM): 0.927 ± 0.038
relative viability ([11]; 0.3704 µM): 0.942 ± 0.029
relative viability ([11]; 1.111 µM): 0.935 ± 0.055
relative viability ([11]; 3.333 µM): 0.933 ± 0.041
relative viability ([11]; 10 µM): 0.855 ± 0.057
relative viability ([12]; 0.00017 µM): 1.06 ± 0.032
relative viability ([12]; 0.00051 µM): 1.04 ± 0.014
relative viability ([12]; 0.00152 µM): 1.04 ± 0.02
relative viability ([12]; 0.00457 µM): 0.977 ± 0.031
relative viability ([12]; 0.01372 µM): 0.931 ± 0.062
relative viability ([12]; 0.04115 µM): 0.875 ± 0.013
relative viability ([12]; 0.1235 µM): 0.749 ± 0.029
relative viability ([12]; 0.3704 µM): 0.703 ± 0.025
relative viability ([12]; 1.111 µM): 0.632 ± 0.019
relative viability ([12]; 3.333 µM): 0.593 ± 0.025
relative viability ([12]; 10 µM): 0.543 ± 0.025

— the supplement of paper PMC10883282
